Results reported in patent US20240228458A1, “PYRIMIDINE DERIVATIVE HAVING PROTEIN KINASE INHIBITORY ACTIVITY, AND THERAPEUTIC PHARMACEUTICAL COMPOSITION COMPRISING SAME” (THERAPEX CO., LTD., priority 2021, published 2024).

Key:
Type in all cases: cell-based
parental Ba/F3 cell line = test: Growth inhibition (GI50) of the parental Ba/F3 cell line (not introduced with EGFR variants), Celltiter glo; settings: Mus musculus, BaF3, 72 h, parental Ba/F3 cells
Procedure: (§1) The parental Ba/F3 cell line is a population of cells that are not introduced with EGFR variants. Specifically, 100 μl of a cell line expressing each variant was plated in a 96-well plate at a density of 100,000 cells/ml. 10-point, 4-fold serial dilutions of each compound were prepared, starting at 2 mM. After 4 h, 0.5 μl of the compound (0.5% DMSO) was added, followed by incubation at 37° C. and 5% CO2 for 72 h. After incubation, the number of viable cells was measured using a Celltiter glo assay kit (Promega) and the GI50 of the compound was determined. The term “GI50” refers to the molar concentration (μM) of the compound required for 50% growth inhibition of cells.

[1] = tested on: Ba/F3 cells expressing del19/T790M/C797S (EGFR-DTC); test: Growth inhibition (GI50) of Ba/F3 cells expressing del19/T790M/C797S (EGFR-DTC), Celltiter glo; settings: Mus musculus, BaF3, 72 h
Procedure: (§2) In this experimental example, a determination was made as to whether the compounds prepared in Examples 1-283 have the ability to inhibit the growth of Ba/F3 cells expressing EGFR-wt, del19/T790M/C797S (EGFR-DTC), L858R/T790M/C797S (EGFR-LTC), del19/T790M (EGFR-DT), and L858R/T790M (EGFR-LT) variants.
as §1

[2] = tested on: Ba/F3 cells expressing EGFR-wt; test: Growth inhibition (GI50) of Ba/F3 cells expressing EGFR-wt, Celltiter glo; settings: Mus musculus, BaF3, 72 h
Procedure: as §2, §1

| SMILES | GI50 [1] [nM] | GI50 [2] [nM] | GI50 (parental Ba/F3 cell line) [nM] |
| --- | --- | --- | --- |
| CN1CCN(C2CCN(c3ccc(Nc4ncc(Cl)c(Nc5ccc(F)cc5NS(C)(=O)=O)n4)cn3)CC2)CC1 [Example 14] | 2000 to 10000 | > 10000 | 2000 to 10000 |
| COc1nc(N2CCC(N3CCN(C)CC3)CC2)ccc1Nc1ncc(Cl)c(Nc2ccc(F)cc2NS(C)(=O)=O)n1 [Example 17, N-(2-((5-chloro-2-((2-methoxy-6-(4-(4-methylpiperazin-1-yl)piperidin-1-yl)pyridin-3-yl)amino)pyrimidin-4-yl)amino)-5-fluorophenyl)methanesulfonamide] | 500 to 2000 | 2000 to 10000 | 2000 to 10000 |
| COc1cc(N2CCC(N3CCN(C)CC3)CC2)c(C)cc1Nc1ncc(Cl)c(Nc2ccccc2C(F)(F)F)n1 [Example 46] | 2000 to 10000 | 2000 to 10000 | 2000 to 10000 |
| COc1cc(N2CCC(N3CCN(C)CC3)CC2)ccc1Nc1ncc(Cl)c(Nc2ccccc2C(F)(F)F)n1 [Example 47] | 500 to 2000 | 2000 to 10000 | 2000 to 10000 |
| CCN1CCN(c2ccc(Nc3ncc(Cl)c(Nc4ccccc4C(F)(F)F)n3)cc2)CC1 [Example 48] | 500 to 2000 | 2000 to 10000 | 2000 to 10000 |
| FC(F)(F)c1ccccc1Nc1nc(Nc2ccc(N3CCOCC3)nc2)ncc1Cl [Example 49] | 500 to 2000 | 2000 to 10000 | 2000 to 10000 |

Continued, in another order:

| GI50 [1] [nM] | GI50 [2] [nM] | SMILES | GI50 (parental Ba/F3 cell line) [nM] |
| --- | --- | --- | --- |
| 100 to 500 | 500 to 2000 | CCN1CCN(c2ccc(Nc3ncc(Cl)c(Nc4ccccc4NS(C)(=O)=O)n3)c(OC)n2)CC1 [Example 1] | 2000 to 10000 |
| 1 to 25 | 100 to 500 | COc1cc(N2CCC(N3CCN(C)CC3)CC2)c(C)cc1Nc1ncc(Cl)c(Nc2ccccc2NS(C)(=O)=O)n1 [Example 2, N-(2-((5-chloro-2-((2-methoxy-5-methyl-4-(4-(4-methylpiperazin-1-yl)piperidin-1-yl)phenyl)amino)pyrimidin-4-yl)amino)phenyl)methanesulfonamide] | 500 to 2000 |
| 100 to 500 | 500 to 2000 | CN1CCN(C2CCN(c3ccc(Nc4ncc(Cl)c(Nc5ccccc5NS(C)(=O)=O)n4)cn3)CC2)CC1 [Example 3, N-(2-((5-chloro-2-((6-(4-(4-methylpiperazin-1-yl)piperidin-1-yl)pyridin-3-yl)amino)pyrimidin-4-yl)amino)phenyl)methanesulfonamide] | 500 to 2000 |
| 500 to 2000 | 2000 to 10000 | CN1CCN(C2CCN(c3ccc(Nc4ncc(Cl)c(Nc5ccccc5NS(C)(=O)=O)n4)c(OCC(F)(F)F)n3)CC2)CC1 [Example 4, N-(2-((5-chloro-2-((6-(4-(4-methylpiperazin-1-yl)piperidin-1-yl)-2-(2,2,2-trifluoroethoxy)pyridin-3-yl)amino)pyrimidin-4-yl)amino)phenyl)methanesulfonamide] | 2000 to 10000 |
| 1 to 25 | 100 to 500 | CN1CCN(C2CCN(c3ccc(Nc4ncc(Cl)c(Nc5ccccc5NS(C)(=O)=O)n4)cc3F)CC2)CC1 [Example 5, N-(2-((5-chloro-2-((3-fluoro-4-(4-(4-methylpiperazin-1-yl)piperidin-1-yl)phenyl)amino)pyrimidin-4-yl)amino)phenyl)methanesulfonamide] | 25 to 100 |
| 25 to 100 | 100 to 500 | COc1cc(N2CCC(N3CCN(C)CC3)CC2)c(C)cc1Nc1ncc(Cl)c(Nc2ccc(F)cc2NS(C)(=O)=O)n1 [Example 12] | 2000 to 10000 |
| 100 to 500 | 500 to 2000 | CS(=O)(=O)Nc1cc(F)ccc1Nc1nc(Nc2ccc(N3CCOCC3)nc2)ncc1Cl [Example 13] | 500 to 2000 |
| 500 to 2000 | 2000 to 10000 | CN1CCN(C2CCN(c3ncc(Nc4ncc(Cl)c(Nc5ccc(F)cc5NS(C)(=O)=O)n4)cc3F)CC2)CC1 [Example 16] | 500 to 2000 |
